Source: publication PMC11062899, “De novo development of small cyclic peptides that are orally bioavailable” (Nature Chemical Biology, 2023)
Where “and” joins values, the source holds several entries; their conditions need not be identical. Equal entries are not always repeated. Where two headings read alike, the source gives them in different places.

Assays:
[1] = Passive artificial membrane permeability (PAMPA);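 on Permeability% Average: top well sample relative to theoretical equilibrium sample by TIC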
[2] = target: T1, rat α-thrombin (Rattus norvegicus, UniProt P18292); test: Protease inhibition, Ki for rat α-thrombin (fluorogenic substrate Z-Gly-Gly-Arg-AMC); type: biochemical; conditions: for Rat alpha thrombin inhibition, slope normalized to DMSO: replicates R1-R3
T1 construct: rat α-thrombin (Molecular Innovations) were used at final concentrations of 2 nM and 3 nM; purchased Molecular Innovations
Method: (§1) The inhibition constants (Ki) of cyclic peptides were calculated by measuring thrombin inhibition in the presence of different concentrations of the cyclic peptides. […] Human α-thrombin (Molecular Innovations) and rat α-thrombin (Molecular Innovations) were used at final concentrations of 2 nM and 3 nM, respectively, and fluorogenic substrate (Z-Gly-Gly-Arg-AMC, Bachem) was used at a concentration of 50 μM. Enzymatic activity was determined by measuring fluorescent gain on a Tecan Infinite M200 Pro microplate reader (excitation: 360 nm, emission: 465 nm) or a PHERAstar FSX microplate reader (excitation: 380 nm, emission: 440 nm) for 30 min at 25 °C with a fluorescent readout every 3 min. The two instruments were controlled with Tecan Infinite M200 Pro instrument software (iControl, version 1.12) and PHERAstar FSX software (version 5.70, edition 8), respectively. Protease inhibition was calculated by comparing the enzymatic activity to a control without cyclic peptide.
(§2) Half maximal inhibitory concentration (IC50) values were determined using a four-parameter logistic regression model in GraphPad Prism 9 to fit sigmoidal curves to the acquired data points according to equation (2) below.2 y=b+a−b/1+10^(logIC50−x)p where a and b represent the measured inhibition maximum and minimum, respectively; x is the logarithm of peptide concentration; y is the thrombin activity compared to a control without the cyclic peptide; and p is the Hill coefficient.
(§3) Ki values were calculated using the IC50 and the Cheng–Prusoff equation (equation (3)).3 Ki=IC50/1+S0/Km where Km is the Michaelis–Menten constant of the enzyme for the substrate used in the assay, and [S]0 is the initial substrate concentration.

[3] = target: human α-thrombin (Homo sapiens, UniProt P00734); test: Protease inhibition, Ki for human α-thrombin (fluorogenic substrate Z-Gly-Gly-Arg-AMC); type: biochemical; conditions: for Human alpha thrombin inhibition, slope normalized to DMSO: replicates R1-R3
Method: as §1, §2, §3

[4] = peptide concentration 1.00E+02 uM
[5] = peptide concentration 1.19E-05 uM
[6] = peptide concentration 1.22E-02 uM
[7] = peptide concentration 1.25E+01 uM
[8] = peptide concentration 1.53E-03 uM
[9] = peptide concentration 1.56E+00 uM
[10] = peptide concentration 1.91E-04 uM
[11] = peptide concentration 1.95E-01 uM
[12] = peptide concentration 2.38E-05 uM
[13] = peptide concentration 2.44E-02 uM
[14] = peptide concentration 2.50E+01 uM
[15] = peptide concentration 3.05E-03 uM
[16] = peptide concentration 3.12E+00 uM
[17] = peptide concentration 3.81E-04 uM
[18] = peptide concentration 3.91E-01 uM
[19] = peptide concentration 4.77E-05 uM
[20] = peptide concentration 4.88E-02 uM
[21] = peptide concentration 5.00E+01 uM
[22] = peptide concentration 6.10E-03 uM
[23] = peptide concentration 6.25E+00 uM
[24] = peptide concentration 7.63E-04 uM
[25] = peptide concentration 7.81E-01 uM
[26] = peptide concentration 9.54E-05 uM
[27] = peptide concentration 9.77E-02 uM

O=C1C[C@H]2CCCN2C(=O)[C@H](Cc2ccccc2)NC(=O)[C@@H](NC(=O)c2ccc(Cl)s2)CC=CCCCN1 [compound 40]
PAMPA permeability: % permeability ([1]; 50 μM, 12–18 h, acceptor concentration relative to equilibrium): 42 ± 11% | Permeability% (single replicates R1–R3) ([1]; 50 μM, 13 h (Fig. 5d)): 47.12% and 50.47% and 29.38% | Permeability% Average ([1]; 50 μM, 13 h (Fig. 5d)): 42.3% | Papp at 50 μM ([1]; PAMPA, pH 7.4): 4.9 ×10⁻⁶ cm/s | Ki ([2]; average of R1-R3, read-out: Rat alpha thrombin inhibition, Ki Average): 1480 nM | Rat alpha thrombin inhibition, slope normalized to DMSO [2, 4]: 8.5 and 10.5 and 9.7 | Rat alpha thrombin inhibition, slope normalized to DMSO [2, 5]: 107.2 and 105.4 and 103.1 | Rat alpha thrombin inhibition, slope normalized to DMSO [2, 6]: 105.9 and 100.2 and 97.5 | Rat alpha thrombin inhibition, slope normalized to DMSO [2, 7]: 28.9 and 25.6 and 11.1 | Rat alpha thrombin inhibition, slope normalized to DMSO [2, 8]: 104.7 and 100.1 and 100.7 | Rat alpha thrombin inhibition, slope normalized to DMSO [2, 9]: 60.2 and 60.7 and 63.3 | Rat alpha thrombin inhibition, slope normalized to DMSO [2, 10]: 101.0 and 93.6 and 80.4 | Rat alpha thrombin inhibition, slope normalized to DMSO [2, 11]: 77.4 and 91.6 and 90.6 | Rat alpha thrombin inhibition, slope normalized to DMSO [2, 12]: 99.9 and 95.1 and 101.1 | Rat alpha thrombin inhibition, slope normalized to DMSO [2, 13]: 106.7 and 94.6 and 110.9 | Rat alpha thrombin inhibition, slope normalized to DMSO [2, 14]: 3.6 and 15.7 and 17.5 | Rat alpha thrombin inhibition, slope normalized to DMSO [2, 15]: 104.4 and 102.5 and 99.7 | Rat alpha thrombin inhibition, slope normalized to DMSO [2, 16]: 54.9 and 53.5 and 52.8 | Rat alpha thrombin inhibition, slope normalized to DMSO [2, 17]: 103.0 and 99.2 and 100.1 | Rat alpha thrombin inhibition, slope normalized to DMSO [2, 18]: 58.4 and 57.7 and 87.4 | Rat alpha thrombin inhibition, slope normalized to DMSO [2, 19]: 109.2 and 85.2 and 99.3 | Rat alpha thrombin inhibition, slope normalized to DMSO [2, 20]: 100.3 and 95.3 and 106.1 | Rat alpha thrombin inhibition, slope normalized to DMSO [2, 21]: 16.0 and 15.4 and 14.7 | Rat alpha thrombin inhibition, slope normalized to DMSO [2, 22]: 102.6 and 94.5 and 101.1 | Rat alpha thrombin inhibition, slope normalized to DMSO [2, 23]: 50.1 and 39.5 and 38.6 | Rat alpha thrombin inhibition, slope normalized to DMSO [2, 24]: 102.8 and 105.9 and 89.3 | Rat alpha thrombin inhibition, slope normalized to DMSO [2, 25]: 79.5 and 71.2 and 76.6 | Rat alpha thrombin inhibition, slope normalized to DMSO [2, 26]: 103.0 and 96.4 and 84.9 | Rat alpha thrombin inhibition, slope normalized to DMSO [2, 27]: 100.1 and 93.3 and 83.6 | IC50 ([2]; single replicates R1-R3, read-out: Rat alpha thrombin inhibition, IC50): 2600 nM and 2780 nM and 2670 nM | Ki ([2]; single replicates R1-R3, read-out: Rat alpha thrombin inhibition, Ki): 1.44 µM (2×) and 1.54 µM (2×) and 1.48 µM (2×) | Ki ([3]; average of R1-R3, read-out: Human alpha thrombin inhibition, Ki Average): 3780 nM | Human alpha thrombin inhibition, slope normalized to DMSO [3, 4]: 24.9 and 25.0 and 20.5 | Human alpha thrombin inhibition, slope normalized to DMSO [3, 5]: 103.5 and 123.5 and 102.0 | Human alpha thrombin inhibition, slope normalized to DMSO [3, 6]: 106.6 and 86.5 and 61.9 | Human alpha thrombin inhibition, slope normalized to DMSO [3, 7]: 42.7 and 42.4 and 47.7 | Human alpha thrombin inhibition, slope normalized to DMSO [3, 8]: 60.4 and 64.9 and 105.1 | Human alpha thrombin inhibition, slope normalized to DMSO [3, 9]: 69.9 and 77.6 and 68.9 | Human alpha thrombin inhibition, slope normalized to DMSO [3, 10]: 105.9 and 100.1 and 65.2 | Human alpha thrombin inhibition, slope normalized to DMSO [3, 11]: 62.1 and 70.8 and 60.8 | Human alpha thrombin inhibition, slope normalized to DMSO [3, 12]: 104.8 and 103.3 and 108.6 | Human alpha thrombin inhibition, slope normalized to DMSO [3, 13]: 60.0 and 97.7 and 99.0 | Human alpha thrombin inhibition, slope normalized to DMSO [3, 14]: 33.7 and 37.4 and 37.6 | Human alpha thrombin inhibition, slope normalized to DMSO [3, 15]: 90.7 and 95.7 and 101.5 | Human alpha thrombin inhibition, slope normalized to DMSO [3, 16]: 61.5 and 74.1 and 46.2 | Human alpha thrombin inhibition, slope normalized to DMSO [3, 17]: 102.1 and 112.0 and 80.2 | Human alpha thrombin inhibition, slope normalized to DMSO [3, 18]: 89.5 and 72.3 | Human alpha thrombin inhibition, slope normalized to DMSO [3, 19]: 107.9 and 97.7 and 98.2 | Human alpha thrombin inhibition, slope normalized to DMSO [3, 20]: 58.9 and 84.7 and 96.6 | Human alpha thrombin inhibition, slope normalized to DMSO [3, 21]: 23.5 and 29.5 (2×) | Human alpha thrombin inhibition, slope normalized to DMSO [3, 22]: 76.0 and 102.5 and 99.2 | Human alpha thrombin inhibition, slope normalized to DMSO [3, 23]: 68.9 and 63.0 and 35.5 | Human alpha thrombin inhibition, slope normalized to DMSO [3, 24]: 61.7 and 101.5 and 87.5 | Human alpha thrombin inhibition, slope normalized to DMSO [3, 25]: 99.5 and 72.0 and 89.1 | Human alpha thrombin inhibition, slope normalized to DMSO [3, 26]: 106.0 and 103.1 and 118.2 | Human alpha thrombin inhibition, slope normalized to DMSO [3, 27]: 62.3 and 75.9 and 55.0
